This is an account of results in US10301288B2, “Kinase inhibitors” (Topivert Pharma Limited, priority 2013, dated 2019).

Where only a bound is given, the exact number is not on record here.

One data set has as its system Naïve CD4+ T cells. Nature of the data set: (g) T cell proliferation. The data set is classed as cell-based. The note with it: Homo sapiens, assay (g), read-out: IC50 for inhibition of T cell proliferation. Here is the method: PBMCs from healthy subjects are separated from whole blood using a density gradient (Lymphoprep, Axis-Shield Healthcare). The lymphocyte fraction is first enriched for CD4+ T cells by negative magnetic cell sorting as per the manufacturer's instructions (Miltenyi Biotec 130-091-155). Naïve CD4+ T cells are then separated using positive magnetic selection of CD45RA+ cells using microbeads as per the manufacturer's instructions (130-045-901). Cells are plated at 2×10^5 cells per well in 100 μL RPMI/10% FBS on 96 well flat bottomed plate (Corning Costar). 25 μL of test compound are diluted to the appropriate concentration (8× final conc.) in normal medium and added to duplicate wells on the plate to achieve a dose response range of 0.03 ng/mL-250 ng/mL. DMSO is added as a negative control. Plates are allowed to pre-incubate for 2 hours before stimulation with 1 μg/mL anti-CD3 (OKT3; eBioscience). After 72 h, the medium in each well is replaced with 150 μL of fresh medium containing 10 μM BrdU (Roche). […] The reaction is stopped by addition of 50 μL of 1 M H2SO4, and read for absorbance at 450 nm on a plate reader (Varioskan® Flash, ThermoFisher Scientific). The IC50 is determined from the dose response curve.

The next data set has as its system β-catenin. The experiment in a line: (m) Accumulation of β catenin in d-U937 cells. Format: cell-based, human. The note with it: Reference Compound at 1 μg/mL defined as 100%. In short, it runs like this: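 PMA-differentiated (100 ng/mL, 48–72 hr) human U937 macrophage-type cells treated with test compound or vehicle for 18 hr. β-catenin measured by in-cell ELISA (anti-β-catenin, HRP secondary, TMB, OD450–655). Signal corrected for cell number by dividing by crystal violet OD595.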

The nature of data set [1]: Plasma pharmacokinetics in beagle dogs. The data set is classed as in vivo, male beagle dogs. The note with it: Dog. Here is the method:
Blood samples (approximately 1.5 mL) were collected from jugular vein such that the samples were obtained at pre-dose, 0.25, 0.5, 1, 2, 4, 6, 8, and 24 hr (p.o.) and pre-dose, 0.08, 0.25, 0.5, 1, 2, 4, 8, 12, 24 and 32 hr (i.v.) post dose. The blood samples were collected from a set of three dogs at each time point in labelled micro centrifuge tube containing K2EDTA as anticoagulant. Plasma samples were separated by centrifugation at 2500 g for 10 min of whole blood and stored below −70° C. until bioanalysis. All samples were processed for analysis by protein precipitation using acetonitrile and analyzed with LC-MS/MS method (LLOQ=0.50 ng/mL). Pharmacokinetic parameters were calculated using the non-compartmental analysis tool of Phoenix WinNonlin® (Version 6.3).

A further data set concerns the target CYP2C9 (Homo sapiens (Human), UniProt P11712). Nature of the data set: CYP450 time-dependent inhibition, CYP2C9. The data set is classed as in vitro ADME. The procedure: CYP450 time-dependent inhibition (TDI) assays were performed with test compound at six test concentrations, 0.062 μM to 15 μM (n=2). The test compounds was pre-incubated for 30 minutes with pooled human hepatic microsomes in 0.1 M Tris buffer, pH 7.4, at 37° C. in the presence of cofactor NADPH. A parallel series of incubations (n=2) were prepared with no pre-incubation. Probe substrates were then added (with additional cofactor) and further incubated for the times specified. Concentrations of probe substrates used in the incubations have been optimised to maintain first order reaction conditions.
Reactions were terminated with acetonitrile containing analytical internal standard (carbamazepine), samples then centrifuged to remove microsomal protein and analysed using optimised LC/MS-MS conditions. The MS data were normalised to internal standard and compared to the appropriate solvent controls to determine the amount of metabolite formed from the probe substrate relative to the “uninhibited” controls. The results are quoted as % inhibition.
Variation in probe turnover between plate wells means that inhibition values recorded below 10-15% may not be significant.

Setting [2] is: male, beagle, plasma, 0.05 mg/kg intravenous.

CYP2C9, sequence (P11712 whole entry): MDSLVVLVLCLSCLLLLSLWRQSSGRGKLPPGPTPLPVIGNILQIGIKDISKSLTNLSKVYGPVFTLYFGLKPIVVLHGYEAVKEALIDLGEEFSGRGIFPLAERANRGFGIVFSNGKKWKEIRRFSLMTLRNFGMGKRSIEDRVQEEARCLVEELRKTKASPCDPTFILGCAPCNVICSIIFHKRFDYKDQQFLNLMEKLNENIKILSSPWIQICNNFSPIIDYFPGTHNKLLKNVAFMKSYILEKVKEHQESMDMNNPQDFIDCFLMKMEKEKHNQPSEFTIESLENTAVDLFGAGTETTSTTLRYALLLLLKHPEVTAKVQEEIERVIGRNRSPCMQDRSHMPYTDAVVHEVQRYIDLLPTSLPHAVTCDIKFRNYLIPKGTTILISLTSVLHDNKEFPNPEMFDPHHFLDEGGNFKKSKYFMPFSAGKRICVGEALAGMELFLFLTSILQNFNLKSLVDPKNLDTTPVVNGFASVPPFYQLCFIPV

With `C#Cc1cc(Nc2nccc(Oc3ccc(NC(=O)Nc4cc(C(C)(C)C)nn4-c4ccc(C)cc4)c4ccccc34)n2)cc(C(=O)NCCOCCOCCOC)c1` [Example 2, 3-((4-((4-(3-(3-(tert-Butyl)-1-(p-tolyl)-1H-pyrazol-5-yl)ureido)naphthalen-1-yl)oxy)pyrimidin-2-yl)amino)-5-ethynyl-N-(2-(2-(2-methoxyethoxy)ethoxy)ethyl)-benzamide], the IC50 in the data set on Naïve CD4+ T cells was 0.0027 µM. For the same compound, the “% β-catenin induction” value with β-catenin (1 μg/mL) came to 0%. The “% β-catenin induction” value in the data set on β-catenin (5 μg/mL) was found to be 2%. In the data set on β-catenin (10 μg/mL), the “% β-catenin induction” value is 0%. In data set [1] (1 mg/kg p.o., Plasma), the Fpo worked out at 0%. For the same compound, in data set [1] (setting [2]), the AUC(0-inf) is 223 ± 92 ng·h/mL, the AUC(0-t) stood at 218 ± 90 ng·h/mL, the C0 amounted to 1370 ng/mL and the Vd came out at 0.2 ± 0.1 L/kg. Further, in data set [1] (setting [2]), the clearance was 4.1 ± 1.4 mL/min/kg and the half-life is 1.9 ± 0.4 h. On CYP2C9 (CYP2C9, 0 min preincubation), this compound came in with an IC50 of over 15 µM. The compound further gave an IC50 against CYP2C9 (CYP2C9, 30 min preincubation) of over 15 µM. The inhibition at 0 min, 15 µM at CYP2C9 (human, pooled human liver microsomes, pH 7.4, CYP2C9, 0 min preincubation, 15 μM, read-out: 15 μM % Inh) turned out to be 35%. At CYP2C9 (human, pooled human liver microsomes, pH 7.4, CYP2C9, 30 min preincubation, 15 μM, read-out: 15 μM % Inh), the inhibition at 30 min, 15 µM amounted to 37%.
